Data from US7858745B2, “Use of specifically engineered enzymes to enhance the efficacy of prodrugs” (The Board of Trustees of the University of Illinois, priority 2003, dated 2010).

Experiments:
[1] = biological target: A100V/R104M/D133A-dCK (Homo sapiens, UniProt P27707, A100V/D133A/R104M); assay: Steady-state kinetic assay of deoxycytidine kinase activity, triple mutant enzyme
Description: Since Arg104 plays a role in the already mentioned active site hydrogen-bonding network, its mutation to the uncharged methionine was combined with the compensatory change of Asp133 to an alanine. […] In addition, Ala100 was changed to a valine as is found in dNK.
All experiments were performed in duplicates.

[2] = test system: HL60 cell line; assay: Annexin V and propidium iodide (PI) staining of apoptotic cells, HL60; assay type: cell-based; details: after 96 hours; AraC at 1 μM
Description: (§1) The HuM195 antibody will only bind and internalize to cells expressing CD33. Thus, the HL60 cell line (derived from AML cells) and the NB4 cell line, which are CD33 positive, were used to test the activity of the HuM195-dCK system in live cells. The cells were treated with AraC, the HuM195-dCK conjugate, or the combination of HuM195-dCK and the AraC. Annexin V and propidium iodide (PI) staining was used to identify apoptotic cells.

[3] = test system: NB4 cells; assay: Apoptosis assay, NB4; assay type: cell-based; details: after 96 hours; AraC 250 nM
Description: as §1
The NB4 cells were also treated with AraC, the HuM195-dCK conjugate, or the combination of HuM195-dCK and the AraC, and an apoptosis assay was performed as above. The AraC dose used, however, was decreased from 1000 nM to 250 nM. The results were similar to those observed in the HL60 cells (FIG. 8). The conjugate with AraC (right bars) achieve ˜65% cell killing after 96 hours, whereas AraC alone was below 40%.

[4] = biological target: dCK (Homo sapiens, UniProt P27707); details: versus cladribine; cited from earlier work
[5] = biological target: T1, dNK (Drosophila melanogaster, UniProt Q9XZT6); details: dC phosphorylation; cited from earlier work
T1 sequence (Q9XZT6 1-250): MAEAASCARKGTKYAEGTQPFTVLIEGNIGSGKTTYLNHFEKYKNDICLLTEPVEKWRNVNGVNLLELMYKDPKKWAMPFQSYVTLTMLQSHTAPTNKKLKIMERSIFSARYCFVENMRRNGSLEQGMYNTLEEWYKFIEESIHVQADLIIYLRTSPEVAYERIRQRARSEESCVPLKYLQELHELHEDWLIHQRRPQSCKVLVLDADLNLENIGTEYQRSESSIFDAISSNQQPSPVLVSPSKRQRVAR

[6] = biological target: Wild Type dCK (Homo sapiens, UniProt P27707); assay: Steady-state kinetic assay of deoxycytidine kinase activity, wild type enzyme; details: prodrug versus dC
Chain of Wild Type dCK (P27707 whole entry): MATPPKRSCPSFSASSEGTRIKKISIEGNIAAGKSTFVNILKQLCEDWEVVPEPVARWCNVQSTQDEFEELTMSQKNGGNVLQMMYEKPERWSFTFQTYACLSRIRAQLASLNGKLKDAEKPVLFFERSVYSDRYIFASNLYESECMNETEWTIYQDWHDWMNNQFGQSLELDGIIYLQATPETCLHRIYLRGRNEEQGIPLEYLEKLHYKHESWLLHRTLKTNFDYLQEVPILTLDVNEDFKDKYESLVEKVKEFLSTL

Chain of A100V/R104M/D133A-dCK (P27707 whole entry A100V/R104M/D133A): as the sequence (P27707 whole entry) above, with A100V, R104M, D133A counted along it
Chain of dCK (P27707 whole entry): as the sequence (P27707 whole entry) above

Cc1cn([C@H]2C[C@H](O)[C@@H](CO)O2)c(=O)[nH]c1=O [thymidine]
phosphorylation of thymidine by the dCK mutant ([1]; Arg104 to methionine, Asp133 to alanine): gained the ability to phosphorylate thymidine

Nc1ccn([C@@H]2O[C@H](CO)[C@@H](O)[C@@H]2O)c(=O)n1 [ara-C, 1-β-D-arabinofuranosylcytosine]
cell death [2]: 50%
cell killing [3]: below 40%

Nc1nc(Cl)nc2c1ncn2[C@@H]1O[C@H](CO)[C@@H](O)[C@@H]1F [clofarabine, 2-chloro-2′-arabino-fluoro-2′-deoxyadenosine]
more efficient substrate for dCK than cladribine [4]: ~3 fold

Nc1ccn([C@H]2C[C@H](O)[C@@H](CO)O2)c(=O)n1 [dC, deoxycytidine]
kcat [5]: 16.5 s⁻¹

Nc1ccn([C@@H]2O[C@H](CO)[C@@H](O)C2(F)F)c(=O)n1 [gemcitabine, 2′,2′-difurodeoxycytidine]
change in KM compared to dC [6]: slight increase
higher enzymatic efficiency for dCK compared to dC [6]: ~4 fold
increase in the kcat compared to dC [6]: 10 fold
increase of efficiency of the triple mutant over wild type ([1]; triple mutant versus wild type dCK): ~4 fold
